Structures can show the parent of a compound that is named as a salt.
Experiments:
CYP2C19 = CYP2C19 (Homo sapiens (Human), UniProt P33261); assay: Inhibition of cytochrome P450 isoenzymes, CYP2C19; assay type: in vitro ADME; conditions: >50 μM: inhibitory effect less than 50% at 50 μM; read-out: CYP 2C19 IC50
Procedure: (§1) 4.1 Experimental Purpose: To test the inhibitory effects of the compounds of the present disclosure on different isoforms of human cytochrome P450 isoenzymes
(§2) 1) The activities of CYP1A2, 2C9, 2C19, 2D6, and 3A4 were measured using a standard substrate method. In each reaction, the enzyme activities were measured in the presence and absence of the substance to be tested, wherein a single sample was measured at a total of eight test concentrations. A 5-in-1 mixed inhibitor was used.
(§3) 2) An incubation matrix comprising microsomes, a substrate, and an inhibitor or the compound to be tested was pre-incubated at 37° C. for 5 minutes, and then NADPH was added to start the reaction.
(§4) 3) After the incubation, acetonitrile with an internal standard was added to stop the reaction.
(§5) 4) Metabolites generated by the substrates were measured by using the LC-MS/MS method, and the peak area ratio of each metabolite to the internal standard was evaluated and the inhibition rate and IC50 were calculated.

[1] = Metabolic stability in liver microsomes; assay type: in vitro ADME; conditions: pH 7.4; human liver microsomes 0.5 mg protein/mL; 45 mg microsome protein/g liver, 20 g liver/kg; read-out: Intrinsic Clearance CLint(liver) in Human Liver
Procedure: Test 3: Metabolic Stability in Liver Microsomes
3.1 Experimental Purpose: To test the metabolic stability of the compounds of the present disclosure in human liver microsomes
a. All samples as well as testosterone, diclofenac and propafenone acting as reference substances were dissolved in DMSO to a storage concentration of 10 mM.
b. Intermediate Solution: 5 μL of the substance to be tested or the reference substance was diluted with 45 μL of DMSO (with 450 μL of 1:1 methanol/water).
c. Working Solution: the intermediate solution was diluted with 450 μL of 100 mM potassium phosphate buffer solution (pH 7.4).
Assay Buffer: 100 mM potassium phosphate buffer (pH 7.4) • 10 mM MgCl2
Liver Microsome Solution (final concentration: 0.5 mg protein/mL):
Human liver microsomes, obtained from BD, Cat No. 452117, Lot No. 38291
b. 10 μL of the working solution containing the substance to be tested or the reference substance was added to each of plates (T0, T5, T10, T20, T30, T60, NCF60).
c. The liver microsome solution was dispensed into a 96-well plate in an amount of 680 μL/well, then 80 was added, and then T was added to each of the plates. The above incubation plate was placed at 37° C. and pre-incubated for approximately 10 minutes.
d. 10 μL of 100 mM potassium phosphate buffer was added to each well in the NCF60 plate.
e. After the pre-incubation was finished, the NADPH regeneration system working solution was dispensed into the 96-well plate in an amount of 90 μL/well, and then added to each of the plates in an amount of 10 μL/well to start the reaction.
f. The plates were incubated for an appropriate time (e.g., 5, 10, 20, 30, or 60 minutes).
g. The stop solution (refrigerated at 4° C., containing 100 ng/mL Tolbutamide and 100 ng/mL Labetalol) was added to each sample well in an amount of 300 μL/well.
h. The sample plates were shaken well for about 10 minutes and centrifuged at 4,000 rpm for 20 minutes at 4° C. During the centrifugation, 300 μL of HPLC water was added to each well, and 100 μL of the supernatant was taken for LC-MS/MS analysis.
T1/2 and Clint(mic) were calculated by the following formula: […]
Each gram of liver contained 45 mg of microsome protein, and the liver weight was 20 g/kg in a human.
Ct was the concentration at time t, t was the incubation time, C0 was the concentration at time 0, Ke was an elimination rate constant, Clint(mic) was the intrinsic clearance in liver microsomes, and Clint(liver) was the intrinsic clearance in liver. CLint(mic)=0.693/half-life/mg of microsome protein per mL(concentration of microsomes during incubation) CLint(liver)=CLint(mic)×mg of microsome protein/g of liver weight×a ratio of liver weight to body weight 3.4 Test Results

CYP3A4 = CYP3A4 (Homo sapiens (Human), UniProt P08684); assay: Inhibition of cytochrome P450 isoenzymes, CYP3A4; assay type: in vitro ADME; conditions: >50 μM: inhibitory effect less than 50% at 50 μM; read-out: CYP 3A4 IC50
Sequence of CYP3A4 (P08684 whole entry): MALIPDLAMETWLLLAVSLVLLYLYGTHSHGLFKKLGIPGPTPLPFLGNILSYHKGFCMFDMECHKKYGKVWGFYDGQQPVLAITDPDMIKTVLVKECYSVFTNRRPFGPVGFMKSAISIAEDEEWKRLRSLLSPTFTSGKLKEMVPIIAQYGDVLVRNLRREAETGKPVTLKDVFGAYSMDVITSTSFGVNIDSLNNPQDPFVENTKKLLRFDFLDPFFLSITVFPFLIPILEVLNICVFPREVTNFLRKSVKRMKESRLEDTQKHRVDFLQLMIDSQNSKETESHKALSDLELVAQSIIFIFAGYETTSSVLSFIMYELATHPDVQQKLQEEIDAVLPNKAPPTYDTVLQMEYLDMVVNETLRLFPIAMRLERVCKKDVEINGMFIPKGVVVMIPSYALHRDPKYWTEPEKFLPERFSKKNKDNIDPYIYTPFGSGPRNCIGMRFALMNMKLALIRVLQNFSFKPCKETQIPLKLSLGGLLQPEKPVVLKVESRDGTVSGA
Procedure: as §1, §2, §3, §4, §5

[2] = biological target: T1, human μ-subtype opioid receptor (hMOR) (Homo sapiens (Human), UniProt P35372); assay: MOR β-arrestin-2 agonist activity test; assay type: cell-based; conditions: for EC50: >30000 nM = greater than the highest detection concentration, read-out: MOR β-arrestin-2 EC50; for Emax: maximum effect of enkephalin DAMGO was 100%, about 0% = no actual agonist activity
Procedure: Test 2: β-Arrestin-2 Agonist Activity Test
2.1 Experimental Purpose: To test the β-arrestin-2 agonist activity of the compounds of the present disclosure on the human μ-subtype opioid receptor (hMOR).
a. All samples were dissolved in DMSO to a storage concentration of 10 mM.
(§6) b. A series of diluted samples were formulated on a 384-well LDV plate. A total of 11 concentration points were obtained by 3.162-fold gradient dilution.
c. The series of diluted samples were transferred to an experimental plate by using an Echo machine, wherein 60 nL of the compound was transferred corresponding to each well.
d. 60 nL of 3.33 mM DAMGO (as HPE) and 60 nL of DMSO (as ZPE) were transferred to the corresponding positions on the experimental plate by using the Echo machine.
The experiment was performed using PathHunter Detection Kit from DiscoveRX Cooperation (DiscoveRX #93-0213C3)
a. Assay buffer and PathHunter detection reagent required for the experiment were formulated.
Assay Buffer: 1×DPBS buffer
PathHunter Detection Reagent: The kit was provided therein with three constituents.
c. The experimental plate was centrifuged at 300 rpm for 30 s and incubated at room temperature for 2 hours.
d. 6 μL of the PathHunter detection reagent was added to each well of the experimental plate.
e. The experimental plate was centrifuged at 300 rpm for 30 seconds, then left at room temperature for 60 minutes, and then read on the Envision.

CYP2D6 = CYP2D6 (Homo sapiens (Human), UniProt P10635); assay: Inhibition of cytochrome P450 isoenzymes, CYP2D6; assay type: in vitro ADME; conditions: read-out: CYP 2D6 IC50
Sequence of CYP2D6 (P10635 whole entry): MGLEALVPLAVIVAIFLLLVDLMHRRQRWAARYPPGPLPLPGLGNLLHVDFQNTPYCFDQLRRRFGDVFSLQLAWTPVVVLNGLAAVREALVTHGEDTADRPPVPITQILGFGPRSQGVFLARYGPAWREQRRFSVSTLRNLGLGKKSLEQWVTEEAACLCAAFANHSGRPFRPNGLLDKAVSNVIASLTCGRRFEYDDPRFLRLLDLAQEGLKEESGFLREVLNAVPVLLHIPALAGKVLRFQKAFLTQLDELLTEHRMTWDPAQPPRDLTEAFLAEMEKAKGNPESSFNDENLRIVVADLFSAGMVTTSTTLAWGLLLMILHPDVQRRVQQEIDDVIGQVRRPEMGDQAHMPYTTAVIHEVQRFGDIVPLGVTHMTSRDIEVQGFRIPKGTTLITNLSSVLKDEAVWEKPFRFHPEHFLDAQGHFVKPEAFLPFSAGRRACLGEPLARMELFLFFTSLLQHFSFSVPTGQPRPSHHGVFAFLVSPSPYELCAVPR
Procedure: as §1, §2, §3, §4, §5

CYP2C9 = CYP2C9 (Homo sapiens (Human), UniProt P11712); assay: Inhibition of cytochrome P450 isoenzymes, CYP2C9; assay type: in vitro ADME; conditions: >50 μM: inhibitory effect less than 50% at 50 μM; read-out: CYP 2C9 IC50
Sequence of CYP2C9 (P11712 whole entry): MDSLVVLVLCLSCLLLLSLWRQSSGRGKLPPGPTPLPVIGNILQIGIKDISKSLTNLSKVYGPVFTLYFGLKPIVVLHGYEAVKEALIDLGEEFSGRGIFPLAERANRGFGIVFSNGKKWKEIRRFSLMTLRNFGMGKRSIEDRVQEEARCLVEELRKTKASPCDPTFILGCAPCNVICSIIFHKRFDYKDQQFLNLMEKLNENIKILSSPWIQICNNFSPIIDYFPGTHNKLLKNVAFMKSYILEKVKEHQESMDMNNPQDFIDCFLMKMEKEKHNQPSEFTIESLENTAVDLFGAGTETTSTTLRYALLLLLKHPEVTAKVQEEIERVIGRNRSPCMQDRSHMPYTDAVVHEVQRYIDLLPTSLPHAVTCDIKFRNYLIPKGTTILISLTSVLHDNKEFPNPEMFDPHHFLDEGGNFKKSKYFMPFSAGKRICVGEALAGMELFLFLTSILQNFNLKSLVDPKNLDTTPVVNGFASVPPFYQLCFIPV
Procedure: as §1, §2, §3, §4, §5

[3] = biological target: T1, human μ-subtype opioid receptor (hMOR); assay: MOR cAMP agonist activity test; assay type: cell-based; conditions: for Emax: maximum effect of enkephalin DAMGO was 100%
Procedure: Test 1: MOR cAMP Agonist Activity Test
1.1 Experimental Purpose: To test the cAMP agonist activity of the compounds of the present disclosure on the human μ-subtype opioid receptor (hMOR).
a. Compound samples were dissolved in DMSO to a storage concentration of 10 mM.
as §6
c. The series of diluted samples were transferred to an experimental plate (Corning-3824) by using an Echo machine, wherein 30 nL was transferred corresponding to each well.
The experiment was performed using a cAMP detection kit from Cisbio (Cisbio #62AM4PEJ).
a. Assay buffer and stimulation buffer (STB) required for the experiment were formulated.
Stimulation Buffer: formulated with the assay buffer, containing 5 μM NKH477 (CAS: 138605-00-2) and 200 μM IBMX (3-isobutyl-1-methylxanthine)
b. […] The number of cells in the well was 10,000 cells/well.
c. The experimental plate was placed in a 37° C. constant-temperature incubator for incubation. The incubation was performed for 40 minutes.
d. A cAMP standard concentration curve was prepared. The first concentration point was at 2848 nM, and a total of sixteen detection concentrations were obtained by 4-fold gradient dilution. There were three replicates for each concentration point.
e. The cAMP detection kit from Cisbio was provided therein with a d2-labeled cAMP reagent (d2 reagent) and an Eu-labeled cAMP antibody reagent (Crypate reagent). The above two reagents were formulated according to the kit instructions, and then added to the sample experimental plate and to the cAMP standard concentration experimental plate, respectively. It was necessary to add 5 μL of the d2 reagent and then 5 μL of the Cryptate reagent to each well.
f. After the experimental plates were left at room temperature for 60 minutes, the experimental plates were read on the Envision.

hERG potassium channels = hERG potassium channels (Homo sapiens (Human), UniProt Q12809); assay: Effects on hERG potassium channels (Qpatch, CHO-hERG cells); assay type: cell-based; conditions: highest test concentration 40 μM, read-out: IC50 representing the blocking effects of hERG potassium currents
Sequence of hERG potassium channels (Q12809 whole entry): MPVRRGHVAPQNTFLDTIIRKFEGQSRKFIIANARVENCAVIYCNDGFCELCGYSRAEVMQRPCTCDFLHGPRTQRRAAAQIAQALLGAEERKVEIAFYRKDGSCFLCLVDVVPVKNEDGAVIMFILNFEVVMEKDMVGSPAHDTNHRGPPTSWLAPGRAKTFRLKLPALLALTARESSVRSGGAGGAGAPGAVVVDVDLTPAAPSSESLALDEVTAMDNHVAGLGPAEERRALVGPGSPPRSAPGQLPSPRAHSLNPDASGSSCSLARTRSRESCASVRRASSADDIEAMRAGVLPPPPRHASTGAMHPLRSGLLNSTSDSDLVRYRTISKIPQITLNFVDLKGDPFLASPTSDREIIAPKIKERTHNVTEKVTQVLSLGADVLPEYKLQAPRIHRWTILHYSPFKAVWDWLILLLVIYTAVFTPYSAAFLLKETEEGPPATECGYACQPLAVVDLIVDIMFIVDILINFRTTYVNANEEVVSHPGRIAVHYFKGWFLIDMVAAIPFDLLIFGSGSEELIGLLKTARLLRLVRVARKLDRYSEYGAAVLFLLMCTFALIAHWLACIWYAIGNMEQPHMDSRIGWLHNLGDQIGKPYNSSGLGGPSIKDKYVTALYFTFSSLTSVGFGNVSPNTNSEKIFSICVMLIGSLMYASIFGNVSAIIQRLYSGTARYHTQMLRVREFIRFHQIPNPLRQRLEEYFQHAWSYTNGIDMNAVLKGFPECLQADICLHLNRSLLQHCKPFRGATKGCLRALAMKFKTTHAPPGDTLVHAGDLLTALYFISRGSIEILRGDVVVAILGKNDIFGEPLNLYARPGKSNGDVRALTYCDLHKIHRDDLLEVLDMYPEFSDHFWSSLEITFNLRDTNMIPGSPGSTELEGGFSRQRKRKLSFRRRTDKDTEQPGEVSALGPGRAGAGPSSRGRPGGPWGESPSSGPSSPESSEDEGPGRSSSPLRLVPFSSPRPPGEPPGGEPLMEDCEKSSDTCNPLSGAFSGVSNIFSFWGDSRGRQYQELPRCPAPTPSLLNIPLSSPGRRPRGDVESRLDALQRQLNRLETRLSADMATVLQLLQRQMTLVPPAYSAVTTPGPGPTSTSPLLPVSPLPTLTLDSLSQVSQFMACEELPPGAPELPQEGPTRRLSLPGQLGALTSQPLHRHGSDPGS
Procedure: 5.1 Experimental Purpose: To test the blocking effects of the compounds of the present disclosure on hERG potassium currents.
a. CHO-hERG cells were cultured in a 175 cm^2 culture flask. When the cells were grown to a density of 60 to 80%, the culture solution was removed, and the cells were washed once with 7 mL of PBS (phosphate buffer solution), and then 3 mL of a cell digestion solution (Detachin) was added for digestion of the cells.
b. After completely digested, the cells were neutralized by adding 7 mL of the culture solution and then centrifuged, the supernatant was removed, and then 5 mL of the culture solution was added for resuspension to ensure a cell density of 2 to 5×10^6 cells/mL.
The single-cell high-impedance sealing and whole-cell pattern formation processes were both carried out automatically by the Qpatch instrument. After the whole-cell recording pattern was obtained, the cells were clamped at −80 millivolts. A preceding voltage of −50 millivolts was applied for 50 milliseconds prior to application of a depolarizing stimulus of +40 millivolts for 5 seconds, and then the cells were repolarized to −50 millivolts and maintained for 5 seconds and then returned back to −80 millivolts. This voltage stimulation was applied every 15 seconds, and data were recorded for 2 minutes, and thereafter the extracellular fluid was administered and data were recorded for 5 minutes, and then the administration process was started. The compound was administered for 2.5 minutes at each test concentration from the lowest test concentration. After all the concentrations of the compound were administered, […] of Cisapride was administered as a positive comparative compound. At least three cells (n>3) were tested for each concentration.
a. A 20 mM compound mother solution was diluted with the extracellular fluid, wherein 5 μL of the 20 mM compound mother solution was taken and diluted 500 times to 40 μM by adding 2495 μL of the extracellular fluid thereto, and then 3-fold serial dilutions were performed sequentially in the extracellular fluid containing 0.2% DMSO to obtain a final concentration to be tested.
b. The highest test concentration was 40 μM, and there were six concentrations in total, i.e., 40, 13.33, 4.44, 1.48, 0.49, and 0.16 μM, respectively.
c. The DMSO content in the final test concentration was not more than 0.2%. This concentration of DMSO had no effect on the hERG potassium channel.
The experimental data were analyzed by XLFit software.

Sequence of CYP2C19 (P33261 whole entry, canonical isoform): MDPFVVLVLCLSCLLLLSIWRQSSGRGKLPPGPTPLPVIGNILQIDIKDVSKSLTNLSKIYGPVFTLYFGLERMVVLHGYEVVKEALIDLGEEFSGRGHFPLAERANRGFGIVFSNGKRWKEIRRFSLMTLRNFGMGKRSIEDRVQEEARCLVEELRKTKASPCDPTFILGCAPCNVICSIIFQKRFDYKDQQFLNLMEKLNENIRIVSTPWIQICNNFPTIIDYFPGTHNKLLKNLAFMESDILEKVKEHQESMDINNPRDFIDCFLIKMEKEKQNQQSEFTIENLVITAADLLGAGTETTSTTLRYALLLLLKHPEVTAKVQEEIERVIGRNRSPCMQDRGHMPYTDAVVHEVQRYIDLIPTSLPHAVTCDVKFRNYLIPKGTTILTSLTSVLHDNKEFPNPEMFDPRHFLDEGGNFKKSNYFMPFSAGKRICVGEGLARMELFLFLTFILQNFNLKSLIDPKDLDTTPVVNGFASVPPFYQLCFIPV

For Clc1cccc(CNCC[C@@]2(c3ccccn3)CCO[C@]3(CCOC3)C2)c1 [(+)-8], the IC50 (CYP2C19) was > 50 µM, the CLint scaled [1] was 10 mL/min/kg and the IC50 (CYP3A4) was > 50 µM. The EC50 [2] was > 30 µM, the Emax [2] was ~0% and the IC50 (CYP2D6) was 17.3 µM. The IC50 (CYP2C9) was > 50 µM, the EC50 [3] was 0.0018 µM and the Emax [3] was 85.3%.

For Cc1cccc(CNCC[C@@]2(c3ccccn3)CCO[C@]3(CCOC3)C2)c1 [(+)-9], the IC50 (CYP2C19) was > 50 µM, the CLint scaled [1] was 8.8 mL/min/kg and the IC50 (CYP3A4) was 21.9 µM. For the same compound, the EC50 [2] was > 30 µM, the Emax [2] was ~0% and the IC50 (CYP2D6) was 23.4 µM. For the same compound, the IC50 (CYP2C9) was > 50 µM, the EC50 [3] was 0.0061 µM and the Emax [3] was 88.9%.

With Fc1cc(Cl)cc(CNCC[C@@]2(c3ccccn3)CCO[C@]3(CCOC3)C2)c1 [(+)-18] the IC50 (CYP2C19) was > 50 µM, the CLint scaled [1] was 84.9 mL/min/kg and the IC50 (CYP3A4) was > 50 µM. The EC50 [2] was > 30 µM, the Emax [2] was ~0% and the IC50 (CYP2D6) was 24.5 µM. For the same compound, the IC50 (CYP2C9) was > 50 µM, the EC50 [3] was 0.0042 µM and the Emax [3] was 87.7%.

Work on Fc1ccc([C@]2(CCNCc3cccc(Cl)c3)CCO[C@]3(CCOC3)C2)nc1 [Hydrochloride Salt of (+)-16] yielded an IC50 (hERG potassium channels) of 22.8 µM.
